In patent US7803930B2, “Antisense modulation of apolipoprotein B-expression” (Isis Pharmaceuticals, Inc., priority 2002, dated 2010):
In the oligonucleotide strings, read from the 5' end, every base follows the letter of its sugar. An asterisk marks phosphorothioate; unmarked linkages are phosphodiester. Other units and linkages are bracketed, terminal groups are in braces. A string of capitals states the bases alone. e = 2'-O-(2-methoxyethyl) (MOE); [5mC] = 5-methylcytosine; d = 2'-deoxy (DNA)

Test system: human apolipoprotein B mRNA
Test: Inhibition of human apolipoprotein B mRNA levels in HepG2 cells, quantitative real-time PCR
Type: cell-based
Details: for % Change in apolipoprotein B mRNA expression / % INHIB 50 nm / % INHIB 150 nm / % INHIB: HepG2 cells; for % Change in apolipoprotein B mRNA expression: 24 hour (Table 41); for % INHIB (inhibition of human apolipoprotein B mRNA levels): HepG2 cells treated with 150 nM of compound, quantitative real-time PCR
Procedure, shortened: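 HepG2 cells at 80% confluency were transfected with antisense oligonucleotide using 3.75 μg/mL Lipofectin in Opti-MEM for 4-7 h and harvested 16-24 h after treatment. Apolipoprotein B mRNA was measured by real-time RT-PCR and normalized to GAPDH or RiboGreen total RNA. Percent inhibition came from untreated-control standard curves.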

[1] = 50 nm oligonucleotide, variable deoxy gap position
[2] = 150 nm oligonucleotide, variable deoxy gap position
[3] = human apolipoprotein B mRNA, oligonucleotides targeting genomic sequence SEQ ID NO 334, averages from two experiments
[4] = Table 11 gene walk, 50 nM, averages from two experiments
[5] = Table 11 gene walk, 150 nM, averages from two experiments
[6] = Table 17 variable gap, 50 nM, averages from three experiments
[7] = Table 17 variable gap, 150 nM, averages from three experiments
[8] = Table 12, 150 nM, averages from two experiments
[9] = Table 13 gene walk, 50 nM, averages from two experiments
[10] = Table 13 gene walk, 150 nM, averages from two experiments

In the case of “332781 (antisense CTCAGTCTGCTTCGCA; sugars from the 5' end e3 d10 e3, all phosphorothioate, methylation of C not given here) [compound 332781]”, the “% Change in apolipoprotein B mRNA expression” value (shortened to “% Change”) (10 nM) is reported as −9%, the “% Change” value (50 nM) is reported as −35% and the “% Change” value (150 nM) is reported as −60%.
“271049 (eG*eT*e[5mC]*e[5mC]*eA*dG*d[5mC]*d[5mC]*dA*dA*d[5mC]*dT*dA*dT*dA*e[5mC]*eT*eT*eG*eG; antisense) [compound 271049]” was tested, and the “% INHIB (inhibition of human apolipoprotein B mRNA levels)” value (averages from two experiments) was 54%.
“308631 (AGGTTACCAGCCACATGCAG; 0-10-10 MOE gapmer, phosphorothioate, chemistry not fully specified) [compound 308631]” was tested, and the “% INHIB 50 nm” value [1] was 74% and the “% INHIB 150 nm” value [2] was 94%.
For “301067 (eT*e[5mC]*eT*eG*eA*dT*d[5mC]*dA*d[5mC]*d[5mC]*dA*dT*dA*d[5mC]*dA*eT*eT*eA*e[5mC]*eA; antisense) [compound 301067]”, the “% INHIB” value [3] was 45%.
“301171 (antisense eT*eA*eT*eT*eT*dA*dA*dT*dT*dT*dA*d[5mC]*dT*dG*dA*eG*eA*eA*eA*e[5mC]) [compound 301171]” was tested, and the “% INHIB” value [3] was 7%.
“147785 (antisense eG*e[5mC]*e[5mC]*e[5mC]*eG*d[5mC]*d[5mC]*dA*dG*d[5mC]*dA*dG*d[5mC]*dA*dG*e[5mC]*eA*eG*e[5mC]*eA) [compound 147785]” was tested, and the “% INHIB” value (Table 1, 150 nM, averages from two experiments) was 29%.
In the case of “301114 (antisense eT*eG*e[5mC]*eA*e[5mC]*dA*dG*dA*dG*dG*dT*dG*d[5mC]*dA*dA*eG*eA*eT*eG*eT) [compound 301114]”, the “% INHIB” value [3] is reported as 16%.
With “301082 (antisense e[5mC]*eT*eA*eT*eG*d[5mC]*dA*dG*dA*dG*dT*dG*dT*dG*dG*eT*e[5mC]*eT*eT*eG) [compound 301082]” the “% INHIB” value [3] was 41%.
In the case of “301151 (e[5mC]*e[5mC]*eT*e[5mC]*eT*d[5mC]*d[5mC]*dA*dA*dT*d[5mC]*dT*dG*dT*dA*eG*eA*e[5mC]*e[5mC]*e[5mC]; antisense) [compound 301151]”, the “% INHIB” value [3] is reported as 28%.
In the case of “281612 (antisense e[5mC]*eA*eA*eG*eG*dT*d[5mC]*dA*dT*dA*d[5mC]*dT*d[5mC]*dT*dG*e[5mC]*e[5mC]*eG*eA*eT) [compound 281612]”, the “% INHIB (inhibition of human apolipoprotein B mRNA levels)” value (averages from two experiments) is reported as 83%.
With “301174 (antisense eG*eT*eG*e[5mC]*e[5mC]*dA*dT*dG*d[5mC]*dT*dA*dG*dG*dT*dG*eG*e[5mC]*e[5mC]*eA*eT) [compound 301174]” the “% INHIB” value [3] was 37%.
In the case of “308600 (antisense eG*eT*eA*eG*e[5mC]*d[5mC]*dT*d[5mC]*dA*dG*dT*d[5mC]*dT*dG*d[5mC]*eT*eT*e[5mC]*eG*e[5mC]) [compound 308600]”, the “% INHIB 50 nm” value [4] is reported as 72% and the “% INHIB 150 nm” value [5] is reported as 89%.
With “308614 (eT*eT*eT*eA*eG*dG*dT*dT*dA*d[5mC]*d[5mC]*dA*dG*d[5mC]*d[5mC]*eA*e[5mC]*eA*eT*eG; antisense) [compound 308614]” the “% INHIB 50 nm” value [4] was 74% and the “% INHIB 150 nm” value [5] was 92%.
With “308654 (antisense GCCTCAGTCTGCTTCGCGCC; 8-10-2 2'-MOE gapmer, phosphorothioate, chemistry not fully specified) [compound 308654]” the “% INHIB 50 nm” value [6] was 81% and the “% INHIB 150 nm” value [7] was 90%.
In the case of “308592 (antisense eT*e[5mC]*eG*e[5mC]*eA*d[5mC]*d[5mC]*dT*dT*d[5mC]*dT*dG*d[5mC]*dT*dT*eG*eA*eG*eT*eT) [compound 308592]”, the “% INHIB 50 nm” value [4] is reported as 49% and the “% INHIB 150 nm” value [5] is reported as 96%.
For “281595 (eG*eA*eT*eG*eT*dG*dG*dA*dT*dT*dT*dG*dG*dT*dG*e[5mC]*eT*e[5mC]*eT*e[5mC]; antisense) [compound 281595]”, the “% INHIB (inhibition of human apolipoprotein B mRNA levels)” value (averages from two experiments) was 76%.
“301094 (antisense eA*e[5mC]*eT*e[5mC]*eA*dA*dT*dA*dT*dA*dT*dA*dT*dT*d[5mC]*eA*eT*eT*eG*eA) [compound 301094]” was tested, and the “% INHIB” value [3] was 22%.
With “271040 (eG*eT*e[5mC]*e[5mC]*eT*dT*d[5mC]*dA*dT*dA*dT*dT*dT*dG*d[5mC]*e[5mC]*eA*eT*e[5mC]*eT; antisense) [compound 271040]” the “% INHIB” value [8] was 0%.
In the case of “301052 (eA*eG*eA*eA*eA*dT*dA*dG*d[5mC]*dT*d[5mC]*dT*d[5mC]*d[5mC]*d[5mC]*eA*eA*eG*eG*eA; antisense) [compound 301052]”, the “% INHIB” value [3] is reported as 13%.
For “301090 (antisense eA*eT*eT*eA*eG*dA*d[5mC]*dT*dG*dG*dA*dA*dG*d[5mC]*dA*eT*e[5mC]*e[5mC]*eT*eG) [compound 301090]”, the “% INHIB” value [3] was 39%.
“308649 (antisense AGGTTACCAGCCACATGCAG; 6-10-4 2'-MOE gapmer, phosphorothioate, chemistry not fully specified) [compound 308649]” was tested, and the “% INHIB 50 nm” value [1] was 68% and the “% INHIB 150 nm” value [2] was 91%.
With “308661 (antisense AGTCTGCTTCGCGCCTTCTG; 2-10-8 2'-MOE gapmer, phosphorothioate, chemistry not fully specified) [compound 308661]” the “% INHIB 50 nm” value [6] was 70% and the “% INHIB 150 nm” value [7] was 91%.
“301173 (antisense e[5mC]*eA*eT*e[5mC]*eT*d[5mC]*dT*dA*dA*d[5mC]*d[5mC]*dT*dG*dG*dT*eG*eT*e[5mC]*e[5mC]*e[5mC]) [compound 301173]” was tested, and the “% INHIB” value [3] was 21%.
“308612 (eG*eG*eT*eT*eA*d[5mC]*d[5mC]*dA*dG*d[5mC]*d[5mC]*dA*d[5mC]*dA*dT*eG*e[5mC]*eA*eG*e[5mC]; antisense) [compound 308612]” was tested, and the “% INHIB 50 nm” value [4] was 75% and the “% INHIB 150 nm” value [5] was 90%.
In the case of “301088 (antisense eA*eT*eG*eT*eT*d[5mC]*dA*d[5mC]*dT*dG*dA*dG*dA*d[5mC]*dA*eG*eG*e[5mC]*eT*eG) [compound 301088]”, the “% INHIB” value [3] is reported as 41%.
With “301216 (antisense e[5mC]*eT*eG*eG*eA*dG*dA*dG*dG*dA*d[5mC]*dT*dA*dA*dA*e[5mC]*eA*eG*eA*eG) [compound 301216]” the “% INHIB” value [3] was 49%.
In the case of “301177 (antisense eT*eG*eA*eA*eG*dA*d[5mC]*dA*dG*dG*dG*dA*dG*d[5mC]*d[5mC]*eA*e[5mC]*e[5mC]*eT*eA) [compound 301177]”, the “% INHIB” value [3] is reported as 40%.
With “308623 (eG*e[5mC]*eG*e[5mC]*e[5mC]*dT*dT*d[5mC]*dT*dG*d[5mC]*dT*dT*dG*dA*eG*eT*eT*eA*e[5mC]; antisense) [compound 308623]” the “% INHIB 50 nm” value [9] was 62% and the “% INHIB 150 nm” value [10] was 71%.
“271002 (antisense eA*eA*eT*e[5mC]*eT*d[5mC]*dG*dA*dT*dG*dA*dG*dG*dT*d[5mC]*eA*eG*e[5mC]*eT*eG) [compound 271002]” was tested, and the “% INHIB (inhibition of human apolipoprotein B mRNA levels)” value (averages from two experiments) was 48%.
“281639 (antisense eG*eA*e[5mC]*eG*eT*d[5mC]*dA*dG*dA*dA*d[5mC]*d[5mC]*dT*dA*dT*eG*eA*eT*eG*eG) [compound 281639]” was tested, and the “% INHIB” value [8] was 38%.
In the case of “308653 (antisense GCCTCAGTCTGCTTCGCACC; 7-10-3 2'-MOE gapmer, phosphorothioate, chemistry not fully specified) [compound 308653]”, the “% INHIB 50 nm” value [1] is reported as 73% and the “% INHIB 150 nm” value [2] is reported as 89%.
In the case of “301064 (e[5mC]*eA*eG*eT*eG*d[5mC]*d[5mC]*dT*d[5mC]*dT*dG*dG*dG*dA*d[5mC]*e[5mC]*e[5mC]*e[5mC]*eA*e[5mC]; antisense) [compound 301064]”, the “% INHIB” value [3] is reported as 60%.
In the case of “301054 (eT*e[5mC]*e[5mC]*eT*e[5mC]*d[5mC]*dA*dT*dA*d[5mC]*d[5mC]*dT*dT*dG*d[5mC]*eA*eG*eT*eT*eG; antisense) [compound 301054]”, the “% INHIB” value [3] is reported as 0%.
“301222 (antisense eT*e[5mC]*eT*eA*eG*dA*dG*dG*dT*dT*dT*dT*dG*d[5mC]*dT*eG*eT*eG*e[5mC]*e[5mC]) [compound 301222]” was tested, and the “% INHIB” value (Table 15, 150 nM, averages from two experiments) was 14%.
In the case of “281597 (eG*eG*eT*eA*eG*dG*dT*dG*dA*d[5mC]*d[5mC]*dA*d[5mC]*dA*dT*e[5mC]*eT*eA*eT*e[5mC]; antisense) [compound 281597]”, the “% INHIB (inhibition of human apolipoprotein B mRNA levels)” value (averages from two experiments) is reported as 36%.
With “308625 (e[5mC]*eT*eT*e[5mC]*eG*d[5mC]*dG*d[5mC]*d[5mC]*dT*dT*d[5mC]*dT*dG*d[5mC]*eT*eT*eG*eA*eG; antisense) [compound 308625]” the “% INHIB 50 nm” value [9] was 64% and the “% INHIB 150 nm” value [10] was 83%.
“301184 (antisense eT*eA*eT*eT*eG*dT*dG*dT*dG*d[5mC]*dT*dG*dG*dG*d[5mC]*eA*e[5mC]*eT*eG*e[5mC]) [compound 301184]” was tested, and the “% INHIB” value [3] was 52%.
In the case of “271048 (e[5mC]*eT*eG*eA*eA*dG*dA*dT*dT*dA*d[5mC]*dG*dT*dA*dG*e[5mC]*eA*e[5mC]*e[5mC]*eT; antisense) [compound 271048]”, the “% INHIB (inhibition of human apolipoprotein B mRNA levels)” value (averages from two experiments) is reported as 7%.
For “301170 (antisense eT*eT*e[5mC]*eA*eT*dA*dT*dG*dA*dA*dA*dT*d[5mC]*dT*d[5mC]*e[5mC]*eT*eA*e[5mC]*eT) [compound 301170]”, the “% INHIB” value [3] was 40%.
With “301175 (antisense eA*eG*e[5mC]*eA*eA*dA*dT*dT*dG*dG*dG*dA*dT*d[5mC]*dT*eG*eT*eG*e[5mC]*eT) [compound 301175]” the “% INHIB” value [3] was 29%.
For “271022 (antisense eG*eA*eT*eA*eG*dA*dA*dT*dA*dT*dT*dG*d[5mC]*dT*d[5mC]*eT*eG*e[5mC]*eA*eA) [compound 271022]”, the “% INHIB (inhibition of human apolipoprotein B mRNA levels)” value (averages from two experiments) was 100%.
